Series [1] deals with YopE secretion by attenuated Y. pestis. The series is described as follows: microbe, parasite or virus in culture. The series is classed as cell-based, Yersinia pestis KIM19. The following applies: for inhibition at 10 µM / inhibition at 100 µM: Yersinia pestis, 1 h; for inhibition at 10 µM: read-out: Inhibition of YopE secretion at 10 µM; for inhibition at 100 µM: read-out: Inhibition of YopE secretion at 100 µM.

Series [2] deals with HeLa cells incubated with attenuated Y. pestis KIM19 strain.
In series [3] the test system is Attenuated Y. pestis KIM19 strain. Format: cell-based, Yersinia pestis.
A short description of another series: in vitro. Particulars: human, hela cells.
Series [4] relates to HeLa cells incubated with attenuated Y. pestis KIM19 strain. The series is described as follows: cells. Particulars: Homo sapiens, 3 h; for inhibition at 10 µM: read-out: Inhibition of HeLa cell toxicity by attenuated Y. pestis at 10 µM; for inhibition at 50 µM: read-out: Inhibition of HeLa cell toxicity by attenuated Y. pestis at 50 µM.

Entries after “also recorded” stand apart in the source; their conditions may differ.

With `Cc1ccc(S(=O)(=O)N2CCCN(c3ccc([N+](=O)[O-])c4nonc34)CC2)cc1` [Compound 1504], in series [1], the “Inhibition of YopE secretion (in words)” value is “poor inhibitors of the YopE secretion”.
Turning to Methanol [reference compound], the “Cytotoxicity against HeLa cells, inhibition at 100 µM” value with human HeLa cells stood at 100±1%.
Usually inhibition stands for the relative decrease from the control value, in per cent. With `O=C(CNC(=O)c1sc2ccccc2c1Cl)Nc1ccc(-n2cnc3ccccc32)cc1` [Compound 7832], in series [2], the “Effectiveness in the cell infection model (in words)” value (“Effectiveness” below) is “only moderately effective”. In addition, in series [1], the “Inhibition of YopE secretion at 50 µM or lower concentration” value was “at least 50%”, the inhibition at 10 µM was at least 95% and the inhibition at 100 µM was at least 80%. Moreover, in series [3], the “Effect on growth rate of Y. pestis in bacterial medium (in words)” value (shortened to “Effect on growth rate of Y. pestis”) is on record as “none of them had a significant effect on the growth rate; also recorded: minimal bacterial growth inhibition”. This compound also had a cytotoxicity at 100 µM in the series “in vitro” of 0%. Moreover, in series [4], the inhibition at 10 µM amounted to 0% and the inhibition at 50 µM was 30%.
For the compound `CC(=O)Nc1ccc(N2C(=O)c3ccc(C(=O)OC(C)C(=O)c4c[nH]c5ccccc45)cc3C2=O)cc1` (stereo not shown) [Compound 7812], the “Effectiveness” value in series [2] is “only moderately effective”. For the same compound, in series [1], the “Inhibition of YopE secretion at 50 µM or lower concentration” value is “at least 50%”, the inhibition at 10 µM is at least 95% and the inhibition at 100 µM is at least 80%. In series [3], the “Effect on growth rate of Y. pestis” value is “none of them had a significant effect on the growth rate; also recorded: minimal bacterial growth inhibition”. Besides, the cytotoxicity at 100 µM in the series “in vitro” was 0%. Besides, in series [4], the inhibition at 10 µM was 0% and the inhibition at 50 µM was 0%.
`O=C(Cc1csc(NC(=O)c2ccccc2)n1)Nn1cnc2scc(-c3ccco3)c2c1=O` [Compound 7086]: the “Effectiveness” value in series [2] is “only moderately effective”. In series [1], the “Inhibition of YopE secretion at 50 µM or lower concentration” value is “at least 50%”, the inhibition at 10 µM was at least 95% and the inhibition at 100 µM was at least 80%. The “Effect on growth rate of Y. pestis” value in series [3] is “small bacteriostatic effect; also recorded: some bacteriostatic effect; also recorded: slight inhibition of bacterial growth”. In “in vitro”, this compound displayed a cytotoxicity at 100 µM of 26 ± 11%. In series [4], the inhibition at 10 µM turned out to be 0% and the inhibition at 50 µM worked out at 20%.
Consider `CNC(=O)C1CN(C(=O)COC(=O)c2cc(-c3cccs3)nc3ccccc23)c2ccccc2O1` (stereo not shown) [Compound 9652], for which, in series [1], the inhibition at 100 µM was found to be 30%.
As to `CC(=O)Nc1ccc(-c2csc(NC(=O)c3sc4nc(C)cc(C)c4c3C)n2)c(F)c1` [Compound 7146], the “Inhibition of YopE secretion (in words)” value in series [1] is “poor inhibitors of the YopE secretion”.

Source of the values: article PMC3097197 (PLoS ONE, 2011).
